Bounds are passed on as bounds.

The subject of one assay is PDE4. Nature of the assay: PDE4 inhibition, scintillation proximity assay (SPA).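 For PDE4 Inhibitory Activity (concentration for the inhibition rate of 50%): A below 100 nM B 100 to below 1000 nM C 1000 nM or more.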 It counts as biochemical. The settings on record: scintillation proximity assay (SPA); evaluated as classes A, B, C; read-out: PDE4 Inhibitory Activity (concentration for the inhibition rate of 50%). The gist of the method: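 Scintillation proximity read-out: [2,8-3H]-cAMP hydrolysis by PDE4 ran 120 min at room temperature in Tris-HCl pH 7.4 buffer with 8.3 mM MgCl2, 1.7 mM EGTA and 3 mg/mL BSA. Bead-bound product (YSi-SPA with ZnSO4, 15 min) counted; blank lacks enzyme, control has DMSO only.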
Regarding `COC(C)(C)COC(c1ccc(-c2nccs2)c2oc(N3CC4CC(C3)N4)nc12)C(F)(F)F` (stereo not shown) [Example 281, 2-(3,6-Diazabicyclo[3.1.1]heptan-3-yl)-7-(thiazol-2-yl)-4-(2,2,2-trifluoro-1-(2-methoxy-2-methylpropoxy)ethyl)benzo[d]oxazole], the IC50 was less than 100 nM.

Consider `COC(c1ccc(-c2nccs2)c2oc(N3CC4CCC(C3)N4)nc12)C(F)F` (stereo not shown) [Example 131, 2-(3,8-Diazabicyclo[3.2.1]octan-3-yl)-4-(2,2-difluoro-1-methoxyethyl)-7-(thiazol-2-yl)benzo[d]oxazole], for which the IC50 is less than 100 nM.

Regarding `CN(C)Cc1cc(-c2nccs2)c2oc(N3CC4CCC(C3)N4)nc2c1` [Example 169, 1-(2-(3,8-Diazabicyclo[3.2.1]octan-3-yl)-7-(thiazol-2-yl)benzo[d]oxazol-5-yl)-N,N-dimethylmethanamine], the IC50 is less than 100 nM.

With `CC(O)c1cc(-c2nccs2)c2oc(N3CC4CCC(C3)N4)nc2c1C(F)(F)F` (stereo not shown) [Example 181, 1-(2-(3,8-Diazabicyclo[3.2.1]octan-3-yl)-7-(thiazol-2-yl)-4-(trifluoromethyl)benzo[d]oxazol-5-yl)ethan-1-ol], the IC50 was less than 100 nM.

Regarding `N#CCOC(c1cc(-c2nccs2)c2oc(N3CC4CCC(C3)N4)nc2c1)C(F)(F)F` (stereo not shown) [Example 153, 2-(1-(2-(3,8-Diazabicyclo[3.2.1]octan-3-yl)-7-(thiazol-2-yl)benzo[d]oxazol-5-yl)-2,2,2-trifluoroethoxy)acetonitrile], the IC50 is less than 100 nM.

As for `CC(=O)c1cc(-c2nccs2)c2oc(N3CC4CCC(C3)N4)nc2c1OC(F)(F)F` [Example 213, 1-(2-(3,8-Diazabicyclo[3.2.1]octan-3-yl)-7-(thiazol-2-yl)-4-(trifluoromethoxy)benzo[d]oxazol-5-yl)ethan-1-one], the IC50 is less than 100 nM.

For the molecule `CC(O)(c1ccc(-c2nccs2)c2oc(N3CC4CC(C3)N4)nc12)C(F)F` (stereo not shown) [Example 297, 2-(2-(3,6-Diazabicyclo[3.1.1]heptan-3-yl)-7-(thiazol-2-yl)benzo[d]oxazol-4-yl)-1,1-difluoropropan-2-ol], the IC50 was less than 100 nM.

As to `COCC(O)COc1ccc(-c2nccs2)c2oc(N3CC4CCC(C3)N4)nc12` (stereo not shown) [Example 83, 1-((2-(3,8-Diazabicyclo[3.2.1]octan-3-yl)-7-(thiazol-2-yl)benzo[d]oxazol-4-yl)oxy)-3-methoxypropan-2-ol], the IC50 is less than 100 nM.

As to `CCOC(=O)c1cc(-c2nccs2)c2oc(N3CC4CCC(C3)N4)nc2c1C(F)(F)F` [Example 163, Ethyl 2-(3,8-diazabicyclo[3.2.1]octan-3-yl)-7-(thiazol-2-yl)-4-(trifluoromethyl)benzo[d]oxazole-5-carboxylate], the IC50 is less than 100 nM.

For `CC(O)(c1cc(-c2nccs2)c2oc(N3CC4CC(C3)N4)nc2c1)C(F)(F)F` (stereo not shown) [Example 160, 2-(2-(3,6-Diazabicyclo[3.1.1]heptan-3-yl)-7-(thiazol-2-yl)benzo[d]oxazol-5-yl)-1,1,1-trifluoropropan-2-ol], the IC50 is less than 100 nM.

With `FC(F)(F)Oc1ccc(-c2nccs2)c2oc(N3CC4CCCC(C3)N4)nc12` [Example 30, 2-(3,9-Diazabicyclo[3.3.1]nonan-3-yl)-7-(thiazol-2-yl)-4-(trifluoromethoxy)benzo[d]oxazole], the IC50 was less than 100 nM.

As to `CC(C)c1cc(-c2nccs2)c2oc(N3CC4CC(C3)N4)nc2c1` [Example 22], the IC50 was less than 100 nM.

For `CC(O)(c1cc(-c2nccs2)c2oc(N3CC4CCC(C3)N4)nc2c1OC(F)(F)F)C(F)(F)F` (stereo not shown) [Example 217, 2-(2-(3,8-Diazabicyclo[3.2.1]octan-3-yl)-7-(thiazol-2-yl)-4-(trifluoromethoxy)benzo[d]oxazol-5-yl)-1,1,1-trifluoropropan-2-ol], the IC50 is less than 100 nM.

As to `OC(c1cc(-c2nccs2)c2oc(N3CC4CC(C3)N4)nc2c1OC(F)(F)F)C(F)F` (stereo not shown) [Example 292, 1-(2-(3,6-Diazabicyclo[3.1.1]heptan-3-yl)-7-(thiazol-2-yl)-4-(trifluoromethoxy)benzo[d]oxazol-5-yl)-2,2-difluoroethan-1-ol], the IC50 was less than 100 nM.

With `COC(c1cc(-c2nccs2)c2oc(N3CC4CCC(C3)N4)nc2c1OC(F)(F)F)C(F)F` (stereo not shown) [Example 209, 2-(3,8-Diazabicyclo[3.2.1]octan-3-yl)-5-(2,2-difluoro-1-methoxyethyl)-7-(thiazol-2-yl)-4-(trifluoromethoxy)benzo[d]oxazole], the IC50 is less than 100 nM.

As to `CC(C)(O)c1cc(-c2nccs2)c2oc(N3CC4CCCC(C3)N4)nc2c1C(F)(F)F` [Example 166, 2-(2-(3,9-Diazabicyclo[3.3.1]nonan-3-yl)-7-(thiazol-2-yl)-4-(trifluoromethyl)benzo[d]oxazol-5-yl)propan-2-ol], the IC50 is less than 100 nM.

As for `FC(F)(F)COC(c1ccc(-c2nccs2)c2oc(N3CC4CCC(C3)N4)nc12)C(F)(F)F` (stereo not shown) [Example 221, 2-(3,8-Diazabicyclo[3.2.1]octan-3-yl)-7-(thiazol-2-yl)-4-(2,2,2-trifluoro-1-(2,2,2-trifluoroethoxy)ethyl)benzo[d]oxazole], the IC50 is less than 100 nM.

In the case of `FC(F)(F)c1ccc(-c2nccs2)c2oc(N3CC4CC(C3)N4)nc12` [Example 32, 2-(3,6-Diazabicyclo[3.1.1]heptan-3-yl)-7-(thiazol-2-yl)-4-(trifluoromethyl)benzo[d]oxazole], the IC50 is less than 100 nM.

For `CC(=O)N(C)c1cc(-c2nccs2)c2oc(N3CC4CCC(C3)N4)nc2c1` [Example 101, N-(2-(3,8-diazabicyclo[3.2.1]octan-3-yl)-7-(thiazol-2-yl)benzo[d]oxazol-5-yl)-N-methylacetamide], the IC50 was less than 100 nM.

For `Oc1cc(-c2nccs2)c2oc(N3CC4CCC(C3)N4)nc2c1` [Example 63, 2-(3,8-Diazabicyclo[3.2.1]octan-3-yl)-7-(thiazol-2-yl) benzo[d]oxazol-5-ol], the IC50 is less than 100 nM.

On to `CC(C)c1cc(-c2nccs2)c2oc(N3CC4CCC(C3)N4)nc2c1` [Example 21, 2-(3,8-Diazabicyclo[3.2.1]octan-3-yl)-5-isopropyl-7-(thiazol-2-yl)benzo[d]oxazole], for which the IC50 is less than 100 nM.

As for `CC(O)c1ccc(-c2nccs2)c2oc(N3CC4CCCC(C3)N4)nc12` (stereo not shown) [Example 239, 1-(2-(3,9-Diazabicyclo[3.3.1]nonan-3-yl)-7-(thiazol-2-yl)benzo[d]oxazol-4-yl)ethan-1-ol], the IC50 was less than 100 nM.

For the molecule `CCOC(=O)c1cc(-c2nccs2)c2oc(N3CC4CCC(C3)N4)nc2c1` [Example 86, Ethyl 2-(3,8-diazabicyclo[3.2.1]octan-3-yl)-7-(thiazol-2-yl) benzo[d]oxazole-5-carboxylate], the IC50 is less than 100 nM.

Turning to `O=C(O)c1cc(-c2nccs2)c2oc(N3CC4CCC(C3)N4)nc2c1OC(F)(F)F` [Example 189, 2-(3,8-Diazabicyclo[3.2.1]octan-3-yl)-7-(thiazol-2-yl)-4-(trifluoromethoxy)benzo[d]oxazole-5-carboxylic acid], the IC50 is 100 to 1000 nM.

As to `OC(c1cc(-c2cscn2)c2oc(N3CC4CCC(C3)N4)nc2c1OC(F)(F)F)C(F)F` (stereo not shown) [Example 302, 1-(2-(3,8-Diazabicyclo[3.2.1]octan-3-yl)-7-(thiazol-4-yl)-4-(trifluoromethoxy)benzo[d]oxazol-5-yl)-2,2-difluoroethan-1-ol], the IC50 is less than 100 nM.

As for `CC(O)C(F)(F)Oc1ccc(-c2cscn2)c2oc(N3CC4CC(C3)N4)nc12` (stereo not shown) [Example 309, 1-((2-(3,6-Diazabicyclo[3.1.1]heptan-3-yl)-7-(thiazol-4-yl)benzo[d]oxazol-4-yl)oxy)-1,1-difluoropropan-2-ol], the IC50 is less than 100 nM.

With `COC(C)(C)c1cc(-c2cscn2)c2oc(N3CC4CC(C3)N4)nc2c1OC(F)(F)F` [Example 287, 2-(3,6-Diazabicyclo[3.1.1]heptan-3-yl)-5-(2-methoxypropan-2-yl)-7-(thiazol-4-yl)-4-(trifluoromethoxy)benzo[d]oxazole], the IC50 is less than 100 nM.

With `CSc1cc(-c2nccs2)c2oc(N3CC4CC(C3)N4)nc2c1` [Example 40, 2-(3,6-Diazabicyclo[3.1.1]heptan-3-yl)-5-(methylthio)-7-(thiazol-2-yl)benzo[d]oxazole], the IC50 is less than 100 nM.

`COCc1cc(-c2nccs2)c2oc(N3CC4CCC(C3)N4)nc2c1C(F)(F)F` [Example 167, 2-(3,8-Diazabicyclo[3.2.1]octan-3-yl)-5-(methoxymethyl)-7-(thiazol-2-yl)-4-(trifluoromethyl)benzo[d]oxazole]: the IC50 is less than 100 nM.

In the case of `COC(c1ccc(-c2nccs2)c2oc(N3CC4CCC(C3)N4)nc12)C(F)(F)F` (stereo not shown) [Example 222, 2-(3,8-Diazabicyclo[3.2.1]octan-3-yl)-7-(thiazol-2-yl)-4-(2,2,2-trifluoro-1-methoxyethyl)benzo[d]oxazole], the IC50 is less than 100 nM.

The same assay, now with this note: scintillation proximity assay; class symbols; read-out: PDE4 Inhibitory Activity.
On to `O=C(NO)c1ccc(-c2nccs2)c2oc(N3CC4CC(C3)N4)nc12` [Example 367, 2-(3,6-diazabicyclo[3.1.1]heptan-3-yl)-N-hydroxy-7-(thiazol-2-yl)benzo[d] oxazole-4-carboxamide], for which the IC50 was less than 100 nM.

Take `CN(CCO)C(=O)C(F)(F)Oc1ccc(-c2nccs2)c2oc(N3CC4CC(C3)N4)nc12` [Example 407, 2-((2-(3,6-diazabicyclo [3.1.1]heptan-3-yl)-7-(thiazol-2-yl)benzo[d]oxazol-4-yl)oxy)-2,2-difluoro-N-(2-hydroxy-ethyl)-N-methyl-acetamide]: the IC50 was less than 100 nM.

As for `OC(c1ccc(-c2nccs2)c2oc(N3CC4CCC(C3)N4O)nc12)C(F)(F)F` (stereo not shown) [Example 378, 3-(7-(thiazol-2-yl)-4-(2,2,2-trifluoro-1-hydroxyethyl)benzo[d]oxazol-2-yl)-3,8-diazabicyclo[3.2.1] octan-8-ol], the IC50 lay within 100 to 1000 nM.

As for `COC(C)(C)C(F)(F)Oc1ccc(-c2nccs2)c2oc(N3CC4CC(C3)N4)nc12` [Example 393, 2-(3,6-diazabicyclo[3.1.1]heptan-3-yl)-4-(1,1-difluoro-2-methoxy-2-methylpropoxy)-7-(thiazol-2-yl) benzo[d]oxazole], the IC50 was less than 100 nM.

Values taken from patent US10669283B2, “Compound and pharmacologically acceptable salt thereof” (MEIJI SEIKA PHARMA CO., LTD., priority 2016, dated 2020).
